Measurements published in paper PMC8590616 (European Journal of Pharmacology, 2021).
Values joined by “and” are separate entries in the source; they are usually repeats but may differ in a detail not shown here. Equal entries are not always repeated. Where two headings read alike, the source gives them in different places.

Experiments:
[1] = cited from earlier work
hERG1 [2] = biological target: T1, hERG1 (Homo sapiens, UniProt Q12809); assay: Manual patch-clamp, standard 2-step hERG protocol at PT; format: cell-based
hNav1.5 [3] = biological target: T2, hNav1.5 (Homo sapiens, UniProt Q14524); assay: Peak INa at PT, manual patch-clamp, HEK293 cells; format: cell-based; settings: for INa peak Hill coefficient nH: PT
hKv7.1+hMinK = hKv7.1+hMinK (Homo sapiens, UniProt P51787); assay: IKs double-step voltage protocol, HEK293 cells; format: cell-based; settings: for effect on plateau IKs level: highest concentration applied (100 μM)
[4] = test system: peak voltage-dependent Na+ current (INa) in Pluricyte cardiomyocytes; assay: hiPSC-CM β-escin-perforated voltage-clamp: peak INa; format: cell-based; settings: Homo sapiens, Cardiomyocyte; for IC50: read-out: peak INa IC50 in hiPSC-CM
[5] = test system: peak L-type Ca2+ current (ICaL) in Pluricyte cardiomyocytes; assay: hiPSC-CM β-escin-perforated voltage-clamp: peak ICaL; format: cell-based; settings: Homo sapiens, Cardiomyocyte; for IC50: read-out: ICaL IC50
hERG (peak IKr) = assay: hiPSC-CM β-escin-perforated voltage-clamp: peak IKr; format: cell-based, human; settings: human
[6] = test system: peak hERG current (IKr) in Pluricyte cardiomyocytes; assay: as above; format: cell-based, human; settings: 5 μM; hiPSC-CM; individual experiments and average ± SD
[7] = test system: steady funny current (If) in Pluricyte cardiomyocytes; assay: hiPSC-CM β-escin-perforated voltage-clamp: steady funny current; format: cell-based; settings: Homo sapiens, Cardiomyocyte, read-out: If IC50
IKr [8] = settings: read-out: IKr IC50, cited from earlier work
IKr [9] = settings: read-out: IKr IC50, cited from earlier work; remark: listed apart in the source
IKr [10] = settings: read-out: IKr IC50; Xenopus laevis oocytes ref Sánchez-Chapula et al. (2002); cited from earlier work
IKs = settings: human atrial myocytes ref Borsini et al. (2012), cited from earlier work
IK1 = settings: read-out: IK1 IC50; HEK293 ref Noujaim et al. (2011); cited from earlier work
INa peak [11] = settings: read-out: INa peak IC50; HEK293 ref Jordaan et al. (2021); cited from earlier work
INa peak [12] = settings: read-out: INa peak IC50; cat Purkinje fibers ref Sánchez-Chapula et al. (2001); cited from earlier work
INa peak [13] = settings: human atrial myocytes ref Borsini et al. (2012), cited from earlier work
INa peak [14] = settings: read-out: INa peak IC50; CHO, PT ref Delaunois et al. (2021); cited from earlier work
INa late = settings: read-out: INa late IC50, CHO, cited from earlier work
ICaL [15] = settings: read-out: ICaL IC50; HEK293 ref Jordaan et al. (2021); cited from earlier work
ICaL [16] = settings: read-out: ICaL IC50; CHO, RT ref Delaunois et al. (2021); cited from earlier work
ICaL [17] = settings: read-out: ICaL IC50; cat Purkinje fibers ref Sánchez-Chapula et al. (2001); cited from earlier work
Ito = settings: read-out: Ito IC50; rat ventricular myocytes ref Wagner et al. (2010); cited from earlier work
If = settings: read-out: If IC50, cited from earlier work
hNav1.5 [18] = biological target: T2, hNav1.5; assay: Peak INa in presence of ATX-II 20 nM at RT, HEK293 cells; settings: for IC50: INa peak IC50, hNav1.5, ATX-II 20 nM, Hill fit
hNav1.5 [19] = biological target: T2, hNav1.5; assay: Late INa in presence of ATX-II 20 nM at RT, HEK293 cells; settings: for IC50: INa late IC50, hNav1.5, ATX-II 20 nM, end of tail current at 0 mV
hERG1 [20] = biological target: T1, hERG1; assay: Manual whole-cell patch-clamp, standard 2-step hERG protocol at RT, HEK293T; settings: for Hill coefficient nH, hERG inhibition: manual patch-clamp, RT
hKir2.1 = biological target: T3, hKir2.1 (Homo sapiens, UniProt P63252); settings: HEK-293T, read-out: IK1 (hKir2.1) IC50
T3 sequence (P63252 1-427): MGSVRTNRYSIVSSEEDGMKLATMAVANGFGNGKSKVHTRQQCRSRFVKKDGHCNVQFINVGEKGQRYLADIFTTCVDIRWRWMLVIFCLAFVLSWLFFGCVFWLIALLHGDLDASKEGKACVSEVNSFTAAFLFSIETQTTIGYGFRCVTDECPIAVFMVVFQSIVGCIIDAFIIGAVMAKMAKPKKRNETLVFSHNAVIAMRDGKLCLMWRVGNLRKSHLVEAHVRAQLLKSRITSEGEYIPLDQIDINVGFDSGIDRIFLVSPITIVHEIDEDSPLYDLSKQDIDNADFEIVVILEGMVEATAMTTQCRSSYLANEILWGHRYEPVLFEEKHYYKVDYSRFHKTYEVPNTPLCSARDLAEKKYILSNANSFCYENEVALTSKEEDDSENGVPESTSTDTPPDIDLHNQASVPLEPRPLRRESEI

hERG1 [21] = biological target: T1, hERG1; assay: Automated patch-clamp; settings: for Hill coefficient nH, hERG inhibition: automated patch-clamp, RT
IKr [22] = settings: cited from earlier work
ICaL [23] = settings: cited from earlier work
[24] = standard 12-compounds panel ref Dutta et al., (2017)
[25] = read-out: peak INa, % of control values
[26] = read-out: peak ICaL, % of control values
[27] = CHO, PT ref Delaunois et al. (2021)
[28] = CHO, PT ref TeBay et al. (2021)
[29] = HEK293, RT ref Delaunois et al. (2021)
[30] = 3 μM, guinea pig SAN cells ref Capel et al. (2015)

hKv7.1+hMinK, sequence (P51787 whole entry): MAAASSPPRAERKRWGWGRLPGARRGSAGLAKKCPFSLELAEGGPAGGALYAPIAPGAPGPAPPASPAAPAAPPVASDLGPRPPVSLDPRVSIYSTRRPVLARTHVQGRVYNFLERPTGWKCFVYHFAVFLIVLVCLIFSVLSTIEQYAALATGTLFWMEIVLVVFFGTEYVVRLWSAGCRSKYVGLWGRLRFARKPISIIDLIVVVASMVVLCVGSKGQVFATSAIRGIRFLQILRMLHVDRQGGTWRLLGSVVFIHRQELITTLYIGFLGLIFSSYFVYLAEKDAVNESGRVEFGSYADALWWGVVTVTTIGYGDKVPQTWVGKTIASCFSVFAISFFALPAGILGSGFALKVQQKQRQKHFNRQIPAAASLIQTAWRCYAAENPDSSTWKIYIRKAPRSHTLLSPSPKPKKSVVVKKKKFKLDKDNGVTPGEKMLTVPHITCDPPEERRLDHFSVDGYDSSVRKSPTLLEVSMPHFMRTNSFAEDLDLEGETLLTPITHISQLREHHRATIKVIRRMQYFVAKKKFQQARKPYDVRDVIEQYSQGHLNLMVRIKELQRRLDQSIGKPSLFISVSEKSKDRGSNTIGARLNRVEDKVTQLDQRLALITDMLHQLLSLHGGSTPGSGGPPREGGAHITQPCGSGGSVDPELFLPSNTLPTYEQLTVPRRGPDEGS
T1 sequence (Q12809 whole entry): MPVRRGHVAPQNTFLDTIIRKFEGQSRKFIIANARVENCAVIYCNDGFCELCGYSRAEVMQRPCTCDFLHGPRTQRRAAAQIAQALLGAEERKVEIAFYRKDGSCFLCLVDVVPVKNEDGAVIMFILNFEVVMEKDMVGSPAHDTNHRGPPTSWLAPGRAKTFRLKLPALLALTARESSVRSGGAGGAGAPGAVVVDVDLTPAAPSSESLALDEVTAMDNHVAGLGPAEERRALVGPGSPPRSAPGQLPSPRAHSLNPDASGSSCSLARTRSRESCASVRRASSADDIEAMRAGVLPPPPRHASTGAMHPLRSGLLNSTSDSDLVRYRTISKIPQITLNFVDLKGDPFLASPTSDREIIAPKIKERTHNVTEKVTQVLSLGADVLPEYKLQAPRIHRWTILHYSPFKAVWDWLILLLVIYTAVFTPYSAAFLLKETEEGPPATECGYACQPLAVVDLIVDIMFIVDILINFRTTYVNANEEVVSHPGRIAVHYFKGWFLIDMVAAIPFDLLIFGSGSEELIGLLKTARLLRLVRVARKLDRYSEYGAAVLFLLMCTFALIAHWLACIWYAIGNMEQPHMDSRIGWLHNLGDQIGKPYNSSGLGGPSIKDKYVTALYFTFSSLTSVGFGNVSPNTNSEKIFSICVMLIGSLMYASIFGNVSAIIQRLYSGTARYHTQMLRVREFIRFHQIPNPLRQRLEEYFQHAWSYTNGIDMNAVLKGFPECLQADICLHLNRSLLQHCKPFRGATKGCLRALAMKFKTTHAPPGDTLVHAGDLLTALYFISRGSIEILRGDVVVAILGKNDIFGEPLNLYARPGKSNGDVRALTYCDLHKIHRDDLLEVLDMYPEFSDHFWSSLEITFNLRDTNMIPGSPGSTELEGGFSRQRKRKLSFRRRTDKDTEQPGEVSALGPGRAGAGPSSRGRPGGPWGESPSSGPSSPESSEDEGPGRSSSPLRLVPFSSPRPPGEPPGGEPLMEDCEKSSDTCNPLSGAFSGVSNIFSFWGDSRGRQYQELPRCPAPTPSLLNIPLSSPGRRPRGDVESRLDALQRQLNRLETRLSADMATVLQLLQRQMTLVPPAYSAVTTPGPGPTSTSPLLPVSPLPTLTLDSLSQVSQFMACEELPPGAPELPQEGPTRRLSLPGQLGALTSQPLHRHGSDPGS
T2 sequence (Q14524 whole entry): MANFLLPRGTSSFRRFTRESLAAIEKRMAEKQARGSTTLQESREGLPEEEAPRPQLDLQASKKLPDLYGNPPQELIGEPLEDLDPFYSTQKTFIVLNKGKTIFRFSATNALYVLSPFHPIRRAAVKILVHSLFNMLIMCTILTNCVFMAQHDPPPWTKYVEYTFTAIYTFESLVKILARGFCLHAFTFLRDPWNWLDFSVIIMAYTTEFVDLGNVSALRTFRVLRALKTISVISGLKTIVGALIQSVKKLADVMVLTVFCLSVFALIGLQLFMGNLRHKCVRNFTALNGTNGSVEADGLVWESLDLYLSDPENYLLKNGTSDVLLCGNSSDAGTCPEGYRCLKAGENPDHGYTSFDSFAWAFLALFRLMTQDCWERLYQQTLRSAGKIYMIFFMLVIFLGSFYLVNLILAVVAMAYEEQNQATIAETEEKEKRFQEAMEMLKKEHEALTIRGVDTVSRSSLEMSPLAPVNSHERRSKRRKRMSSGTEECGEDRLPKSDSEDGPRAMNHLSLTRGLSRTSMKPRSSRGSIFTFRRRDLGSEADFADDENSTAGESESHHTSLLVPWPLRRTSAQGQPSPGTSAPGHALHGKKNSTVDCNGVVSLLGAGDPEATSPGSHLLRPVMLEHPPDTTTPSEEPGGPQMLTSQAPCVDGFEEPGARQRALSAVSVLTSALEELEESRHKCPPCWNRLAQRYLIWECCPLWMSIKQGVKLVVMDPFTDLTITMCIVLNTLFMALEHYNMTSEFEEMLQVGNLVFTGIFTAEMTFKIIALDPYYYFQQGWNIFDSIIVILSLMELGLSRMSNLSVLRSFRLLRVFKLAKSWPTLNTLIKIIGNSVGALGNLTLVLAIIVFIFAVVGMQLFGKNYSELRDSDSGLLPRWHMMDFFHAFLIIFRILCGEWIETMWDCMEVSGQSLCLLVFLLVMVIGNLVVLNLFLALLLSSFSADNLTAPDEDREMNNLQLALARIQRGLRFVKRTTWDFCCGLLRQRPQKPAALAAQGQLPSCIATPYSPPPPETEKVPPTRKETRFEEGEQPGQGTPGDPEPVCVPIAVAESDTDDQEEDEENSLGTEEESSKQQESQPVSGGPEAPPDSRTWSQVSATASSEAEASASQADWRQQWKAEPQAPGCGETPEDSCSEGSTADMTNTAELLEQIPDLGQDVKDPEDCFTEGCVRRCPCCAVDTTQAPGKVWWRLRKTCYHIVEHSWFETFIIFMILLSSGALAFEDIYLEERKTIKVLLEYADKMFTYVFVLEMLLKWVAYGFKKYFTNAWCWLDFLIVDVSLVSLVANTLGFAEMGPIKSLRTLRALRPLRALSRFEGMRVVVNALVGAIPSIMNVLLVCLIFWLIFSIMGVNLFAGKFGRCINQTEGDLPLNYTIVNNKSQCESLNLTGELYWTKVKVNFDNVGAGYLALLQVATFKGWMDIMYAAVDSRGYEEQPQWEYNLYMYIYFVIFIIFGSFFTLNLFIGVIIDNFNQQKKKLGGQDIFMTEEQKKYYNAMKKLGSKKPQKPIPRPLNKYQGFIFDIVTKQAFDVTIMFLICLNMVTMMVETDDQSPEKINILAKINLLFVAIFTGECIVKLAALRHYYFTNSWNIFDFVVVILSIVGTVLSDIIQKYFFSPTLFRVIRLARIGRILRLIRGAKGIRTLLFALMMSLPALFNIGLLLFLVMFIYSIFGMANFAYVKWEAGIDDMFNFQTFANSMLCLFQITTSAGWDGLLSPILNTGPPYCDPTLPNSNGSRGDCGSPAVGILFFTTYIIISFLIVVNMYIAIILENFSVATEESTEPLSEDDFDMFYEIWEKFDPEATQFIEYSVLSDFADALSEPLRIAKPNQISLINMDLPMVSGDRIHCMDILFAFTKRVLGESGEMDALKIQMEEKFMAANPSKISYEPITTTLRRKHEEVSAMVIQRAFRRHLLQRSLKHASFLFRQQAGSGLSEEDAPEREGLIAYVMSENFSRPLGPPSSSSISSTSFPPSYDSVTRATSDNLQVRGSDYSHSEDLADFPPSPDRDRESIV

For CN(C)CCCN1c2ccccc2Sc2ccc(Cl)cc21 [Chlorpromazine], the Cmax [1, 24] is listed as 38 nM.

In the case of COc1ccc([C@@H]2Sc3ccccc3N(CCN(C)C)C(=O)[C@@H]2OC(C)=O)cc1 [Diltiazem], the Cmax [1, 24] is listed as 122 nM.

In the case of Cc1cccc(C)c1OCC(C)N (stereo not shown) [Mexiletine], the Cmax [1, 24] is given as 4130 nM.

In the case of Cc1nccn1CC1CCc2c(c3ccccc3n2C)C1=O (stereo not shown) [Ondansetron], the Cmax [1, 24] is listed as 139 nM.

In the case of COc1ccccc1OCC(O)CN1CCN(CC(=O)Nc2c(C)cccc2C)CC1 (stereo not shown) [Ranolazine], the Cmax [1, 24] is given as 1950 nM.

For CC(C)NCC(O)c1ccc(NS(C)(=O)=O)cc1 (stereo not shown) [Sotalol], the Cmax [1, 24] is given as 14700 nM.

For CC(C)(C)c1ccc(C(O)CCCN2CCC(C(O)(c3ccccc3)c3ccccc3)CC2)cc1 (stereo not shown) [Terfenadine], the Cmax [1, 24] is given as 4 nM.

In the case of CCN(CC)CCCC(C)Nc1ccnc2cc(Cl)ccc12 (stereo not shown) [chloroquine], the “Hill coefficient nH, hERG inhibition” value (hERG1 [2]) is reported as 1.25, the IC50 (hNav1.5 [3]) is reported as 39.3 µM and the “INa peak Hill coefficient nH” value (hNav1.5 [3]) is reported as 0.97. The IC50 (hKv7.1+hMinK) was over 100 µM, the “effect on plateau IKs level” value (hKv7.1+hMinK) was “only slightly inhibited” and the IC50 [4] was 45 µM. The inhibition at 5 µM ([4]; read-out: peak INa average inhibition) was 10%, the activity at 5 µM [4, 25] was 90 ± 12% and the IC50 [5] was 30.7 µM. For the same compound, the activity at 5 µM [5, 26] was 86 ± 9%, the activity at 5 µM (hERG (peak IKr)) was 37.2% and the potency estimated from few doses (hERG (peak IKr)) was 2960 nM. For the same compound, the “peak IKr % inhibition” value [6] was 62.78 ± 11.12%, the IC50 [7] was over 162 µM and the Cmax ([1]; Table 2 ref Borsini et al. (2012)) was 410 nM. For the same compound, the “Cmax, maximal free plasma therapeutic concentration” value ([1]; usual doses ref Borsini et al., 2012) was 0.41 µM, the IC50 (IKr [8]; HEK293, RT ref Borsini et al. (2012)) was 960 nM and the IC50 (IKr [8]; HEK293, RT ref Traebert et al. (2004)) was 2500 nM. For the same compound, the IC50 (IKr [9]; CHO ref Jordaan et al. (2021)) was 7.77 µM, the IC50 (IKr [9]; [27]) was 1.03 µM and the IC50 (IKr [9]; [28]) was 1.47 µM. The IC50 (IKr [10]) was 8.4 µM, the IKs % block (IKs; 10 μM) was 8% and the IC50 (IKs; read-out: IKs IC50) was 115 µM. For the same compound, the IC50 (IK1) was 1200 nM, the IC50 (INa peak [11]) was 8.48 µM and the IC50 (INa peak [12]) was 12.2 µM. For the same compound, the “INa peak % block” value (INa peak [13]; 30 μM) was 42.6%, the IC50 (INa peak [13]; read-out: INa peak IC50) was 40.4 µM and the IC50 (INa peak [14]) was 14 µM. The IC50 (INa late; PT ref Delaunois et al. (2021)) was 11.6 µM, the IC50 (INa late; RT ref Delaunois et al. (2021)) was 109 µM and the IC50 (ICaL [15]) was 3.05 µM. The IC50 (ICaL [16]) was 17.9 µM, the IC50 (ICaL [17]) was 21.2 µM and the IC50 (Ito) was 4.6 mM. For the same compound, the IC50 (If; [29]) was 228 µM, the “INa peak Hill coefficient nH” value (hNav1.5 [18]) was 0.98 and the IC50 (hNav1.5 [18]) was 159 µM. The “INa late Hill coefficient nH” value (hNav1.5 [19]) was 0.85, the IC50 (hNav1.5 [19]) was 30.4 µM and the “Hill coefficient nH, hERG inhibition” value (hERG1 [20]) was 0.90. The potency estimated from few doses (hKir2.1) was 5.86 µM and the “Hill coefficient nH, hERG inhibition” value (hERG1 [21]) was 1.36.

For CCN(CCO)CCCC(C)Nc1ccnc2cc(Cl)ccc12 (stereo not shown) [hydroxychloroquine], the IC50 (hNav1.5 [3]) was 42.4 µM, the “INa peak Hill coefficient nH” value (hNav1.5 [3]) was 1.02 and the IC50 (hKv7.1+hMinK) was over 100 µM. For the same compound, the “effect on plateau IKs level” value (hKv7.1+hMinK) was “only slightly inhibited”, the IC50 [4] was 52.5 µM and the activity at 10 µM [4, 25] was 84 ± 16%. The IC50 [5] was 90 µM, the activity at 10 µM [5, 26] was 90 ± 12% and the IC50 [7] was over 990 µM. For the same compound, the Cmax ([1]; Table 2 ref Yao et al. (2020)) was 495 nM, the “Cmax, maximal free plasma therapeutic concentration” value ([1]; usual doses ref Yao et al., 2020) was 0.495 μM and 215 ng/ml and the “Cmax, maximal free plasma therapeutic concentration” value ([1]; usual doses ref Yao et al., 2020, listed as Hydroxychloroquine) was 0.495 μM and 215 ng/ml. The IC50 (IKr [9]; CHO ref Jordaan et al. (2021)) was 9.7 µM, the IC50 (IKr [9]; [27]) was 2.66 µM and the IC50 (IKr [9]; [28]) was 3.78 µM. The IC50 (IKr [9]; CHO, RT ref Delaunois et al. (2021)) was 6.97 µM, the IKr % block (IKr [22]; [30]) was 35% and the IC50 (IKr [22]; read-out: IKr IC50, guinea pig SAN cells, PT ref Capel et al. (2015)) was 5.6 µM. For the same compound, the IC50 (INa peak [11]) was over 300 µM, the IC50 (INa peak [14]) was 17 µM and the IC50 (INa late; PT ref Delaunois et al. (2021)) was 21.4 µM. The IC50 (INa late; RT ref Delaunois et al. (2021)) was 92.9 µM, the IC50 (ICaL [15]) was 7.64 µM and the IC50 (ICaL [16]) was 66.3 µM. For the same compound, the ICaL % block (ICaL [23]; [30]) was 12%, the IC50 (ICaL [23]; read-out: ICaL IC50, guinea pig SAN cells, PT ref Capel et al. (2015)) was 22 µM and the IC50 (If; HEK293, PT ref Delaunois et al. (2021)) was over 300 µM. For the same compound, the IC50 (If; [29]) was 372 µM, the “INa peak Hill coefficient nH” value (hNav1.5 [18]) was 0.81 and the IC50 (hNav1.5 [18]) was 96.2 µM. The “INa late Hill coefficient nH” value (hNav1.5 [19]) was 0.89, the IC50 (hNav1.5 [19]) was 64.9 µM and the IC50 (hERG1 [20]) was 4.79 µM. The “Hill coefficient nH, hERG inhibition” value (hERG1 [20]) was 0.85, the potency estimated from few doses (hKir2.1) was 29.3 µM and the IC50 (hERG1 [21]) was 3.42 µM. For the same compound, the “Hill coefficient nH, hERG inhibition” value (hERG1 [21]) was 1.02.
